Measured values reported in patent publication US20250302815A1, “PROTEIN TYROSINE PHOSPHATASE TARGETING LIGANDS” (CALICO LIFE SCIENCES LLC, priority 2021, published 2025).

Tests used:
[1] = molecular target: T1, PTPN2 (HiBIT-PTPN2 in 293T.109 cells) (Homo sapiens, UniProt P17706); assay: HiBiT Degradation 293T.109 PTPN2 (Nano-Glo HiBiT Lytic Assay); assay type: cell-based; details: 24.0 hours
T1 construct: expressed in transfected cells; host or cells: 293T.109 (293T WT from ATCC)
T1 sequence (P17706 1-415): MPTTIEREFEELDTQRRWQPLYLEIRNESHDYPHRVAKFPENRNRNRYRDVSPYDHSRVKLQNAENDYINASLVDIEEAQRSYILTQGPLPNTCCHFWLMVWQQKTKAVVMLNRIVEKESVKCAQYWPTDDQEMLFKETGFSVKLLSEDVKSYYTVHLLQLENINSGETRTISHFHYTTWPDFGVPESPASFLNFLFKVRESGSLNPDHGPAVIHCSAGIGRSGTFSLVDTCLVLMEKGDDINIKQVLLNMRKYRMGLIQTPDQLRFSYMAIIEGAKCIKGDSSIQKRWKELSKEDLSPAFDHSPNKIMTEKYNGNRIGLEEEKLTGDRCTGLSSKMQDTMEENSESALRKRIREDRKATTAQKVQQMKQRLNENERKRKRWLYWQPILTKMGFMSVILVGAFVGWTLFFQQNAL
Text: Dulbecco's modified Eagle medium (DMEM) without phenol red and fetal bovine serum (FBS) were purchased from Gibco (Grand Island, NY, USA). Nano-Glo® HiBIT Lytic Assay System was purchased from Promega (Madison, WI, USA). 293T.109 (HiBIT-PTPN2) cell line was generated by ectopically expressing PTPN2 with N-terminal HiBIT fusion tag in 293T WT cell line purchased from ATCC (Manassas, VA, USA). Cell culture flasks and 384-well microplates were acquired from VWR (Radnor, PA, USA).
PTPN2 degradation was determined based on quantification of luminescent signal using Nano-Glo® HiBIT Lytic Assay kit. Test compounds were added to the 384-well plate from a top concentration of 10 μM with 11 points, half log titration in duplicates. 293T.109 cells were added into 384-well plates at a cell density of 5000 cells per well. The plates were kept at 37° C. with 5% CO2 for 24 hours. The cells treated in the absence of the test compound were the negative control and the cells without Nano-Glo® HiBIT Lytic reagent were the positive control. After 24-hour incubation, Nano-Glo® HiBiT Lytic Assay reagents were added to the cells. Luminescence was acquired on EnVision™ Multilabel Reader (PerkinElmer, Santa Clara, CA, USA).

PTPN2 (B16F10.4 cells) = molecular target: T2, PTPN2 (B16F10.4 cells) (Mus musculus, UniProt Q06180); assay: HiBiT Degradation B16F10.4 PTPN2; assay type: cell-based; details: 24.0 hours
T2 construct: HiBiT; host or cells: B16F10.4
T2 sequence (Q06180 1-406): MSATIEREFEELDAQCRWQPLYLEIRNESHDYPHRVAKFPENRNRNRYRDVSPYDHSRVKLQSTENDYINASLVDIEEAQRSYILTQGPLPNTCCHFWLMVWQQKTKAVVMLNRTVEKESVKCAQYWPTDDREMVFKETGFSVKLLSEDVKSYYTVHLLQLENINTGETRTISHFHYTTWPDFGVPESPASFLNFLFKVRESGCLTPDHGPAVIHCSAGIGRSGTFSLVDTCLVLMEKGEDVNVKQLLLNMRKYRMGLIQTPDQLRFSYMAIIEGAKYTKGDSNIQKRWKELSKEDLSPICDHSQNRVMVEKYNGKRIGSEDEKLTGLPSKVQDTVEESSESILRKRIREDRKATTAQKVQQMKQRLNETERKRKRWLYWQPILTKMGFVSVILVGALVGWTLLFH

| Compound | DC50 [1] [nM] | DC50 (PTPN2 (B16F10.4 cells)) [nM] |
| --- | --- | --- |
| CC1(C)C[C@@H](Nc2cccc(-c3sc(C(=O)O)c(OCC(=O)O)c3Cl)c2)CCN1S(=O)(=O)Cc1cccc(NC(=O)C2CN(C(=O)CNc3cccc4c3CN([C@@H]3CCC(=O)NC3=O)C4=O)C2)c1 (single isomer, unassigned) [Example 44a] | < 50 | 200 to 1000 |
| CC1(C)C[C@@H](Nc2cccc(-c3sc(C(=O)O)c(OCC(=O)O)c3Cl)c2)CCN1S(=O)(=O)Cc1cccc(NC(=O)C2CN(C(=O)CNc3cccc4c3CN([C@H]3CCC(=O)NC3=O)C4=O)C2)c1 (single isomer, unassigned) [Example 44b] | < 50 | 200 to 1000 |
| CC(C)n1c(=O)n([C@@H]2CCC(=O)NC2=O)c2ccc(C3CCN(C(=O)Nc4cccc(CS(=O)(=O)N5CC[C@H](Nc6cccc(-c7sc(C(=O)O)c(OCC(=O)O)c7Cl)c6)CC5(C)C)c4)CC3)cc21 (single isomer, unassigned) [Example 87a] | 50 to 200 | 50 to 200 |
| CC(C)n1c(=O)n(C2CCC(=O)NC2=O)c2ccc(C3CCN(C(=O)Nc4cccc(CS(=O)(=O)N5CC[C@H](Nc6cccc(-c7sc(C(=O)O)c(OCC(=O)O)c7Cl)c6)CC5(C)C)c4)CC3)cc21 (single isomer, unassigned) [Example 87b] | 50 to 200 | 50 to 200 |
| CC1(C)C[C@@H](Nc2cccc(-c3sc(C(=O)O)c(OCC(=O)O)c3Cl)c2F)CCN1S(=O)(=O)Cc1ccc(F)c(NC(=O)C2CN(C(=O)CNc3cccc4c3CN([C@@H]3CCC(=O)NC3=O)C4=O)C2)c1 (single isomer, unassigned) [Example 148a] | < 50 | 200 to 1000 |
| CC1(C)C[C@@H](Nc2cccc(-c3sc(C(=O)O)c(OCC(=O)O)c3Cl)c2F)CCN1S(=O)(=O)Cc1ccc(F)c(NC(=O)C2CN(C(=O)CNc3cccc4c3CN([C@H]3CCC(=O)NC3=O)C4=O)C2)c1 (single isomer, unassigned) [Example 148b] | < 50 | 200 to 1000 |
| CC1(C)C[C@@H](Nc2cccc(-c3sc(C(=O)O)c(OCC(=O)O)c3Cl)c2F)CCN1S(=O)(=O)Cc1ccc(F)c(NC(=O)N2CCC(c3ccc4c5c(cccc35)C(=O)N4C3CCC(=O)NC3=O)CC2)c1 (single isomer, unassigned) [Example 167] | 50 to 200 | < 50 |
| Cn1c(=O)n([C@H]2CCC(=O)NC2=O)c2ccc([C@@H]3CCN(C(=O)Nc4cccc(CS(=O)(=O)N5CC[C@H](Nc6cccc(-c7sc(C(=O)O)c(OCC(=O)O)c7Cl)c6)CC5(C)C)c4)CC3(F)F)cc21 (single isomer, unassigned) [Example 169a] | < 50 | < 50 |
| Cn1c(=O)n([C@@H]2CCC(=O)NC2=O)c2ccc([C@@H]3CCN(C(=O)Nc4cccc(CS(=O)(=O)N5CC[C@H](Nc6cccc(-c7sc(C(=O)O)c(OCC(=O)O)c7Cl)c6)CC5(C)C)c4)CC3(F)F)cc21 (single isomer, unassigned) [Example 169b] | 50 to 200 | 50 to 200 |
| CC1(C)C[C@@H](Nc2cccc(-c3sc(C(=O)O)c(OCC(=O)O)c3Cl)c2)CCN1S(=O)(=O)Cc1cccc(NC(=O)N2CCC(c3ccc4c5c(cccc35)C(=O)N4[C@@H]3CCC(=O)NC3=O)CC2)c1 (single isomer, unassigned) [Example 187a] | < 50 | < 50 |
| Cn1c(=O)n([C@H]2CCC(=O)NC2=O)c2ccc(C3CCN(C(=O)Nc4cccc(CS(=O)(=O)N5CC[C@H](Nc6cccc(-c7sc(C(=O)O)c(OCC(=O)O)c7Cl)c6)CC5(C)C)c4)CC3)cc21 (single isomer, unassigned) [Example 234] | < 50 | < 50 |
| Cn1c(=O)n([C@@H]2CCC(=O)NC2=O)c2ccc(C3CCN(C(=O)Nc4cccc(CS(=O)(=O)N5CC[C@H](Nc6cccc(-c7sc(C(=O)O)c(OCC(=O)O)c7Cl)c6)CC5(C)C)c4)CC3)cc21 (single isomer, unassigned) [Example 235] | < 50 | < 50 |
| Cn1c(=O)n(C2CCC(=O)NC2=O)c2ccc([C@@H]3CCN(C(=O)Nc4cccc(CS(=O)(=O)N5CC[C@H](Nc6cccc(-c7sc(C(=O)O)c(OCC(=O)O)c7Cl)c6)CC5(C)C)c4)C[C@@H]3F)cc21 (stereo in doubt) [Example 172] | < 50 | < 50 |
| CC1(C)C[C@@H](Nc2cccc(-c3sc(C(=O)O)c(OCC(=O)O)c3Cl)c2)CCN1S(=O)(=O)Cc1cccc(NC(=O)CCCCCn2cc(CNc3cccc4c3C(=O)N(C3CCC(=O)NC3=O)C4=O)nn2)c1 (stereo partly drawn) [Example 12, 3-(carboxymethoxy)-4-chloro-5-(3-(((4S)-1-((3-(6-(4-(((2-(2,6-dioxopiperidin-3-yl)-1,3-dioxoisoindolin-4-yl)amino)methyl)-1H-1,2,3-triazol-1-yl)hexanamido)benzyl)sulfonyl)-2,2-dimethylpiperidin-4-yl)amino)phenyl)thiophene-2-carboxylic acid] | 200 to 1000 | 200 to 1000 |
| CC1(C)C[C@@H](Nc2cccc(-c3sc(C(=O)O)c(OCC(=O)O)c3Cl)c2)CCN1S(=O)(=O)Cc1cccc(NC(=O)CCn2cc(CNc3cccc4c3C(=O)N(C3CCC(=O)NC3=O)C4=O)nn2)c1 (stereo partly drawn) [Example 13, 3-(carboxymethoxy)-4-chloro-5-(3-(((4S)-1-((3-(3-(4-(((2-(2,6-dioxopiperidin-3-yl)-1,3-dioxoisoindolin-4-yl)amino)methyl)-1H-1,2,3-triazol-1-yl)propanamido)benzyl)sulfonyl)-2,2-dimethylpiperidin-4-yl)amino)phenyl)thiophene-2-carboxylic acid] | 200 to 1000 | 200 to 1000 |
| CC1(C)C[C@H](Nc2cccc(-c3sc(C(=O)O)c(OCC(=O)O)c3Cl)c2)CCN1S(=O)(=O)Cc1cccc(NC(=O)CCn2cc(CNc3cccc4c3C(=O)N(C3CCC(=O)NC3=O)C4=O)nn2)c1 (stereo partly drawn) [Example 14, 3-(carboxymethoxy)-4-chloro-5-(3-(((4R)-1-((3-(3-(4-(((2-(2,6-dioxopiperidin-3-yl)-1,3-dioxoisoindolin-4-yl)amino)methyl)-1H-1,2,3-triazol-1-yl)propanamido)benzyl)sulfonyl)-2,2-dimethylpiperidin-4-yl)amino)phenyl)thiophene-2-carboxylic acid] | 200 to 1000 | ≥ 1000 |
| CC1(C)C[C@@H](Nc2cccc(-c3sc(C(=O)O)c(OCC(=O)O)c3Cl)c2)CCN1S(=O)(=O)Cc1cccc(NC(=O)CCOCCn2cc(CNc3cccc4c3C(=O)N(C3CCC(=O)NC3=O)C4=O)nn2)c1 (stereo partly drawn) [Example 15, 3-(carboxymethoxy)-4-chloro-5-(3-(((4S)-1-((3-(3-(2-(4-(((2-(2,6-dioxopiperidin-3-yl)-1,3-dioxoisoindolin-4-yl)amino)methyl)-1H-1,2,3-triazol-1-yl)ethoxy)propanamido)benzyl)sulfonyl)-2,2-dimethylpiperidin-4-yl)amino)phenyl)thiophene-2-carboxylic acid] | 200 to 1000 | 200 to 1000 |
| O=C(O)COc1c(C(=O)O)sc(-c2cccc(NC3CCN(S(=O)(=O)Cc4cccc(NC(=O)C5CCN(C(=O)CNc6cccc7c6C(=O)N(C6CCC(=O)NC6=O)C7=O)CC5)c4)CC3)c2)c1Cl (centres unmarked) [Example 16] | 200 to 1000 | ≥ 1000 |
| Cn1c(=O)n(C2CCC(=O)NC2=O)c2ccc(N3CCCC4(CN(C(=O)Nc5cccc(CS(=O)(=O)N6CC[C@H](Nc7cccc(-c8sc(C(=O)O)c(OCC(=O)O)c8Cl)c7)CC6(C)C)c5)C4)C3)cc21 (some centres unmarked) [Example 141] |  | 200 to 1000 |
| CC1(C)C[C@@H](Nc2cccc(-c3sc(C(=O)O)c(OCC(=O)O)c3Cl)c2)CCN1S(=O)(=O)Cc1cccc(NC(=O)N2CCCN(c3ccc4c5c(cccc35)N(C3CCC(=O)NC3=O)C4=O)CC2)c1 (stereo partly drawn) [Example 164, 3-(carboxymethoxy)-4-chloro-5-(3-(((4S)-1-((3-(4-(1-(2,6-dioxopiperidin-3-yl)-2-oxo-1,2-dihydrobenzo[cd]indol-5-yl)-1,4-diazepane-1-carboxamido)benzyl)sulfonyl)-2,2-dimethylpiperidin-4-yl)amino)phenyl)thiophene-2-carboxylic acid] | 200 to 1000 |  |
